Data taken from the NIST ThermoML archive (doi:10.1016/j.jct.2013.09.035).

Assay: wn = mass fraction of the nth substance listed
Settings: Liquid, Vibrating tube method, w2 = 0.5

CCOC(F)(F)C(F)(C(F)(F)F)C(F)(F)F [nonafluoroisobutyl ethyl ether] + CCOC(F)(F)C(F)(F)C(F)(F)C(F)(F)F
Settings	mass density [kg/m3]
283.47 K, 10000 kPa	1482.27
283.48 K, 100 kPa	1457.82
283.48 K, 1000 kPa	1460.24
283.48 K, 3000 kPa	1465.3
283.48 K, 5000 kPa	1470.22
283.48 K, 25000 kPa	1513.47
283.48 K, 30000 kPa	1522.25
283.49 K, 15000 kPa	1493.18
283.49 K, 20000 kPa	1503.4
283.49 K, 40000 kPa	1538.97
283.49 K, 50000 kPa	1553.61
283.49 K, 80000 kPa	1591.2
283.49 K, 90000 kPa	1602.13
283.49 K, 100000 kPa	1612.51
283.5 K, 60000 kPa	1567.59
283.5 K, 70000 kPa	1579.58
293.33 K, 40000 kPa	1520.74
293.33 K, 50000 kPa	1536.34
293.34 K, 100 kPa	1433.67
293.34 K, 3000 kPa	1442.2
293.34 K, 5000 kPa	1447.74
293.34 K, 10000 kPa	1460.66
293.34 K, 25000 kPa	1493.61
293.34 K, 80000 kPa	1575.81
293.35 K, 15000 kPa	1472.51
293.35 K, 20000 kPa	1483.44
293.35 K, 70010 kPa	1563.65
293.35 K, 100000 kPa	1597.56
293.36 K, 1000 kPa	1436.34
293.36 K, 30000 kPa	1503.18
293.36 K, 60000 kPa	1550.72
293.36 K, 90000 kPa	1586.86
303.23 K, 100 kPa	1410.99
303.23 K, 1000 kPa	1413.95
303.23 K, 3000 kPa	1420.34
303.23 K, 5000 kPa	1426.43
303.23 K, 10000 kPa	1440.51
303.23 K, 15000 kPa	1453.28
303.23 K, 30000 kPa	1485.94
303.23 K, 40000 kPa	1504.31
303.23 K, 70000 kPa	1549.38
303.23 K, 90000 kPa	1573.69
303.23 K, 100000 kPa	1584.73
303.24 K, 20000 kPa	1464.95
303.24 K, 25000 kPa	1475.81
303.24 K, 50000 kPa	1520.78
303.24 K, 60000 kPa	1535.65
303.24 K, 80000 kPa	1561.98
313.14 K, 40000 kPa	1487.04
313.15 K, 25000 kPa	1456.84
313.15 K, 50000 kPa	1504.3
313.15 K, 60000 kPa	1519.95
313.16 K, 15000 kPa	1432.86
313.16 K, 20000 kPa	1445.3
313.16 K, 30000 kPa	1467.53
313.17 K, 1000 kPa	1390.04
313.17 K, 5000 kPa	1403.68
313.17 K, 10000 kPa	1418.95
313.17 K, 100000 kPa	1571.77
313.18 K, 100 kPa	1386.8
313.18 K, 3000 kPa	1397.04
313.18 K, 90000 kPa	1559.98
313.19 K, 70000 kPa	1535.1
313.19 K, 80000 kPa	1547.94
323.03 K, 70000 kPa	1522.41
323.03 K, 79990 kPa	1535.93
323.03 K, 90000 kPa	1548.47
323.03 K, 100000 kPa	1560.39
323.04 K, 15000 kPa	1415.6
323.04 K, 20000 kPa	1429.06
323.04 K, 25000 kPa	1441.36
323.04 K, 30000 kPa	1452.73
323.04 K, 40000 kPa	1473.17
323.04 K, 50000 kPa	1491.32
323.04 K, 60000 kPa	1507.67
323.05 K, 100 kPa	1365.33
323.05 K, 1000 kPa	1368.99
323.05 K, 3000 kPa	1376.71
323.05 K, 5000 kPa	1384.07
323.05 K, 10000 kPa	1400.75
332.93 K, 80000 kPa	1522.17
332.93 K, 90000 kPa	1535.21
332.93 K, 100000 kPa	1547.28
332.94 K, 15000 kPa	1395.61
332.94 K, 20000 kPa	1409.99
332.94 K, 25000 kPa	1423.08
332.94 K, 30000 kPa	1435.1
332.94 K, 40000 kPa	1456.69
332.94 K, 50000 kPa	1475.63
332.94 K, 60000 kPa	1492.7
332.94 K, 70000 kPa	1508.09
332.95 K, 100 kPa	1340.66
332.95 K, 1000 kPa	1344.7
332.95 K, 3000 kPa	1353.32
332.95 K, 5000 kPa	1361.37
332.95 K, 10000 kPa	1379.59
342.83 K, 100 kPa	1316.31
342.83 K, 3000 kPa	1330.5
342.84 K, 1000 kPa	1320.87
342.84 K, 5000 kPa	1339.38
342.85 K, 10000 kPa	1359.29
342.85 K, 15000 kPa	1376.59
342.85 K, 20000 kPa	1391.96
342.86 K, 25000 kPa	1405.93
342.86 K, 30000 kPa	1418.67
342.86 K, 40000 kPa	1441.37
342.87 K, 60000 kPa	1479.04
342.87 K, 69990 kPa	1494.97
342.87 K, 80000 kPa	1509.52
342.88 K, 50000 kPa	1461.22
342.88 K, 90000 kPa	1522.96
342.88 K, 100000 kPa	1535.5
352.77 K, 3000 kPa	1307.3
352.78 K, 1000 kPa	1296.47
352.78 K, 5000 kPa	1317.18
352.78 K, 10000 kPa	1339.03
352.78 K, 15000 kPa	1357.74
352.78 K, 20000 kPa	1374.27
352.78 K, 25000 kPa	1389.09
352.78 K, 30000 kPa	1402.65
352.78 K, 40000 kPa	1426.56
352.78 K, 50000 kPa	1447.34
352.78 K, 60000 kPa	1465.76
352.79 K, 70000 kPa	1482.51
352.79 K, 80000 kPa	1497.6
352.79 K, 90000 kPa	1511.48
352.79 K, 100000 kPa	1524.4
362.72 K, 1000 kPa	1270.63
362.72 K, 3000 kPa	1282.75
362.73 K, 5000 kPa	1293.79
362.73 K, 10000 kPa	1317.75
362.73 K, 15000 kPa	1338.07
362.73 K, 20000 kPa	1355.77
362.73 K, 25000 kPa	1371.52
362.73 K, 30000 kPa	1385.83
362.73 K, 40000 kPa	1410.97
362.73 K, 50000 kPa	1432.73
362.73 K, 60000 kPa	1451.97
362.73 K, 70000 kPa	1469.11
362.73 K, 80000 kPa	1484.73
362.73 K, 90000 kPa	1499.1
362.73 K, 100000 kPa	1512.38
